In patent publication US20260108527A1, “POLO LIKE KINASE 4 INHIBITORS” (ORIC Pharmaceuticals, Inc., priority 2022, published 2026):

Legend:
human recombinant PLK4 = biological target: T1, human recombinant PLK4 (Homo sapiens, UniProt O00444); test: PLK4 Biochemical Assay (ADP-Glo); settings: 0.5 nM PLK4, 8.0 μM ATP, 4.7 μM MBP, 6 hours at RT
T1 construct: purchased ThermoFisher PV6396
T1 sequence (O00444 1-970): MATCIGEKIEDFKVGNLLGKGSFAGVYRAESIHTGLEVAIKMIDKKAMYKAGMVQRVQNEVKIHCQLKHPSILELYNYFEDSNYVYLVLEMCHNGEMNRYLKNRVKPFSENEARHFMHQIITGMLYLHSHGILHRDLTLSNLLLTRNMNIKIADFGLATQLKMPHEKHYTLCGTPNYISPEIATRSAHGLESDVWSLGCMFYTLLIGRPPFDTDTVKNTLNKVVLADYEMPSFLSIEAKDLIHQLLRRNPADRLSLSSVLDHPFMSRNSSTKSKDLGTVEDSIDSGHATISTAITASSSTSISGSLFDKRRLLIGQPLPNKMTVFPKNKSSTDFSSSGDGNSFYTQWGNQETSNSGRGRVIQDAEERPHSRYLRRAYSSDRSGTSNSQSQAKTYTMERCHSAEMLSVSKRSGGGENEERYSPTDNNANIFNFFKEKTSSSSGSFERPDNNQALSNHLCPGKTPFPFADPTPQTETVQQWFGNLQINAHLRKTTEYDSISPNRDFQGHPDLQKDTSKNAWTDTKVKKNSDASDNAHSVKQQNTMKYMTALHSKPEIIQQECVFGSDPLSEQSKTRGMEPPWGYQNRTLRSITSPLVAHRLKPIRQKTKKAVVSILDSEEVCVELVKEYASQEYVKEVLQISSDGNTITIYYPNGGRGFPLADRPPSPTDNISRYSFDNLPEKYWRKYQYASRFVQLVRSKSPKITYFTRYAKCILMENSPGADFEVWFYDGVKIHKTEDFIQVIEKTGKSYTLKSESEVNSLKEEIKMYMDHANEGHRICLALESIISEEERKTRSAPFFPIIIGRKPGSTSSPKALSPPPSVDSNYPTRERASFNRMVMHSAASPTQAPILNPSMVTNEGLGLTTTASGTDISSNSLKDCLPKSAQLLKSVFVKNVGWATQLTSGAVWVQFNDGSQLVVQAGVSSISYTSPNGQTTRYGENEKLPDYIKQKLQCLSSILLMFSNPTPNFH
Description: Activity of human recombinant PLK4 (ThermoFisher, cat #PV6396) was measured by quantification of adenosine diphosphate (ADP) using the ADP-Glo Kinase Assay Kit (Promega, cat #V9102). […] 5 μL of 1.0 nM PLK4 protein in assay buffer (50 mM HEPES, pH 7.5, 0.01% Brij-35, 0.01% BSA, 10 mM MgCl2, 1 mM EGTA, 1 mM DTT) was added to the plates. Test compounds and PLK4 were incubated for 15 minutes at room temperature (RT). […] Reactions were stopped and the remaining ATP depleted by adding 10 μL of ADP-Glo reagent (Promega, cat #V912B) and incubating for 40 minutes at RT. The simultaneous conversion of the remaining ADP to ATP and measurement of the newly synthesized ATP was achieved by addition of 20 μL Kinase Detection reagent (Promega, cat #V914B), incubation for 30 min at RT, and luminescence detection using the EnVision plate reader (PerkinElmer). […] The IC50 values reported in Table 2 were determined using four parameter non-linear regression curve fit.

[1] = biological target: T2, human recombinant Aurora B (Homo sapiens, UniProt Q96GD4); test: Aurora B Kinase Biochemical Assay (ADP-Glo); settings: selectivity ratio; Aurora B 10 nM, 114 μM ATP
T2 construct: purchased ThermoFisher PR9210B
T2 sequence (Q96GD4 whole entry): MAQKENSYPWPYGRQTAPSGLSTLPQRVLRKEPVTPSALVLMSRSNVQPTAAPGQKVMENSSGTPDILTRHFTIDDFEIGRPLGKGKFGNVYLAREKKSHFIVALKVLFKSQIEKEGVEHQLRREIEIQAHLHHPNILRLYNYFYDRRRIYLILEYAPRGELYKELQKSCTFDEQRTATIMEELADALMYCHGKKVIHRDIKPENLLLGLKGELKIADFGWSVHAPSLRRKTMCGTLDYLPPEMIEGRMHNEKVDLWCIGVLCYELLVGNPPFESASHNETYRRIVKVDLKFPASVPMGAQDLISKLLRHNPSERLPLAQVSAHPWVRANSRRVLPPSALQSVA
Description: Activity of human recombinant Aurora B (ThermoFisher, cat #PR9210B) was measured by quantification of adenosine diphosphate (ADP) using the ADP-Glo Kinase Assay Kit (Promega, cat #V9102). Test compounds were solubilized in dimethyl sulfoxide (DMSO) and dispensed into 384-well white polystyrene nonbinding plates (Greiner, cat #781094) using the Echo acoustic dispenser (Labcyte Inc.) in a 11-point 3-fold titration in duplicates. 5 μL of 20 nM Aurora B in assay buffer (50 mM HEPES, pH 7.5, 0.01% Brij-35, 0.01% BSA, 10 mM MgCl2, 1 mM EGTA, 1 mM DTT) was added to the plates. Test compounds and Aurora B were incubated for 15 minutes at room temperature (RT). Then 5 μL of a 228 μM adenosine triphosphate (ATP) (Promega, cat #V915B) and 9.3 μM Myelin Basic Protein (MBP) (SignalChem, cat #M42-51N) substrate solution in assay buffer was added and the reaction mixture was incubated for 2 hours at RT. The final concentration of Aurora b, ATP and MBP in the reactions were 10 nM, 114 μM and 4.7 μM, respectively. Reactions were stopped and the remaining ATP depleted by adding 10 μL of ADP-Glo reagent (Promega, cat #V912B) and incubating for 40 minutes at RT. The simultaneous conversion of the remaining ADP to ATP and measurement of the newly synthesized ATP was achieved by addition of 20 μL Kinase Detection reagent (Promega, cat #V9141B), incubation for 30 min at RT, and luminescence detection using the EnVision plate reader (PerkinElmer). Reactions lacking Aurora B were used as […]. Reactions containing DMSO alone were used as […]. The IC50 values reported in Table 2 were determined using four parameter non-linear regression curve fit.

CHP134 = CHP134 CellTiter-Glo (CTG) Assay; type: cell-based; settings: Homo sapiens, CHP-134, 120 h; viable cells by CellTiter-Glo after 5 days
Description: […] cells (DSMZ-German Collection of Microorganisms and Cell Cultures, Braunschweig Germany) were cultured in RPMI 1640 supplemented with 10% fetal bovine serum, penicillin (100 U/ml), 1% L-Glutamine and streptomycin ([…]). Cells were seeded (200 cells/well) in 384-well plates for 16 hours. On day two, nine serial 1:3 compound dilutions were made in DMSO in a 96-well plate. The compounds were then further diluted into growth media using a BRAVO robot (Agilent, Santa Clara, CA). The diluted compounds were then added to quadruplicate wells in the 384-well cell plate and incubated at 37° C. and 5% CO2. After 5 days, relative numbers of viable cells were measured by luminescence using CellTiter-Glo® (Promega) according to the manufacturer's instructions and read on a SPARK Multimode Microplate Reader (Tecan, Mannedorf Switzerland). The IC50 calculations for the values reported in Table 2 were carried out using Prism 6.0 software (GraphPad, San Diego).

Structure (SMILES) | IC50 (human recombinant PLK4) [nM] | [Aurora B IC50 (nM)]/[PLK4 IC50 (nM)] [1] | IC50 (CHP134) [nM]
COc1ccc2c(c1)[C@]1(C[C@H]1c1ccc3c(Nc4nc(-c5cnn(C)c5)cnc4OC)n[nH]c3c1)C(=O)N2 [Example 24, (1R,2S)-5′-methoxy-2-(3-{[3-methoxy-6-(1-methyl-1H-pyrazol-4-yl)pyrazin-2-yl]amino}-1H-indazol-6-yl)spiro[cyclopropane-1,3′-indol]-2′(1′H)-one] | 0.408 | 263.2352 | 49.9
CCOc1ccc(-c2nccs2)cc1Nc1n[nH]c2cc([C@@H]3C[C@@]34C(=O)Nc3ccc(OC)cc34)ccc12 [Example 33, (1R,2S)-2-{3-[2-ethoxy-5-(1,3-thiazol-2-yl)anilino]-1H-indazol-6-yl}-5′-methoxyspiro[cyclopropane-1,3′-indol]-2′(1′H)-one] | 0.753 | 45644.0903 | 41.4
COc1ccc2c(c1)[C@]1(C[C@H]1c1ccc3c(Nc4nc(-c5ncco5)ccc4OC)n[nH]c3c1)C(=O)N2 [Example 4, (1R,2S)-5′-methoxy-2-(3-{[3-methoxy-6-(1,3-oxazol-2-yl)pyridin-2-yl]amino}-1H-indazol-6-yl)spiro[cyclopropane-1,3′-indol]-2′(1′H)-one] | 0.682 | 549.2668 | 53.1
CCOc1cc(S(C)(=O)=O)ccc1Nc1n[nH]c2cc([C@@H]3C[C@@]34C(=O)N(C)c3ccc(OC)cc34)ccc12 [Example 23, (1R,2S)-2-{3-[2-ethoxy-4-(methanesulfonyl)anilino]-1H-indazol-6-yl}-5′-methoxy-1′-methylspiro[cyclopropane-1,3′-indol]-2′(1′H)-one] | 1.41 | 1017 | 111
COc1ccc2c(c1)[C@]1(C[C@H]1c1ccc3c(Nc4cc(-c5cscn5)ccc4OC)n[nH]c3c1)C(=O)N2 [Example 15, (1R,2S)-5′-methoxy-2-{3-[2-methoxy-5-(1,3-thiazol-4-yl)anilino]-1H-indazol-6-yl}spiro[cyclopropane-1,3′-indol]-2′(1′H)-one] | 0.65 | 511.8461 | 93.8
COc1ccc2c(c1)[C@]1(C[C@H]1c1ccc3c(Nc4nc(N(C)C)ncc4OC)n[nH]c3c1)C(=O)N2 [Example 20, (1R,2S)-2-(3-{[2-(dimethylamino)-5-methoxypyrimidin-4-yl]amino}-1H-indazol-6-yl)-5′-methoxyspiro[cyclopropane-1,3′-indol]-2′(1′H)-one] | 2.8 | 120 | 440
CCOc1cc(-n2cncn2)cnc1Nc1n[nH]c2cc([C@@H]3C[C@@]34C(=O)Nc3ccc(OC)cc34)ccc12 [Example 38, (1R,2S)-2-(3-{[3-ethoxy-5-(1H-1,2,4-triazol-1-yl)pyridin-2-yl]amino}-1H-indazol-6-yl)-5′-methoxyspiro[cyclopropane-1,3′-indol]-2′(1′H)-one] | 0.817 | 559.1 | 266
COc1ccc2c(c1)[C@]1(C[C@H]1c1ccc3c(Nc4cc(-c5cocn5)ccc4OC)n[nH]c3c1)C(=O)N2 [Example 16, (1R,2S)-5′-methoxy-2-{3-[2-methoxy-5-(1,3-oxazol-4-yl)anilino]-1H-indazol-6-yl}spiro[cyclopropane-1,3′-indol]-2′(1′H)-one] | 0.894 | 730.6487 | 160
COc1ccc2c(c1)[C@]1(C[C@H]1c1ccc3c(Nc4nc(-c5cnn(C)c5)ncc4OC)n[nH]c3c1)C(=O)N2 [Example 31, (1R,2S)-5′-methoxy-2-(3-{[5-methoxy-2-(1-methyl-1H-pyrazol-4-yl)pyrimidin-4-yl]amino}-1H-indazol-6-yl)spiro[cyclopropane-1,3′-indol]-2′(1′H)-one] | 0.259 | 429.3981 | 135
COc1ccc2c(c1)[C@]1(C[C@H]1c1ccc3c(Nc4cc(-c5cnn(C)c5)ncc4OC)n[nH]c3c1)C(=O)N2 [Example 27, (1R,2S)-5′-methoxy-2-(3-{[5-methoxy-2-(1-methyl-1H-pyrazol-4-yl)pyridin-4-yl]amino}-1H-indazol-6-yl)spiro[cyclopropane-1,3′-indol]-2′(1′H)-one] | 1.06 | 954.5884 | 463
CCOc1cc2c(ccc[n+]2[O-])cc1Nc1n[nH]c2cc([C@@H]3C[C@@]34C(=O)Nc3ccc(OC)cc34)ccc12 [Example 12, 7-ethoxy-6-((6-((1R,2S)-5′-methoxy-2′-oxospiro[cyclopropane-1,3′-indolin]-2-yl)-1H-indazol-3-yl)amino)quinoline 1-oxide] | 3.1 | 810 | 1100
COc1ccc2c(c1)[C@]1(C[C@H]1c1ccc3c(Nc4cc(-c5cnn(CC(F)F)c5)cnc4OC)n[nH]c3c1)C(=O)N2 [Example 46, (1R,2S)-2-(3-((5-(1-(2,2-difluoroethyl)-1H-pyrazol-4-yl)-2-methoxypyridin-3-yl)amino)-1H-indazol-6-yl)-5′-methoxyspiro[cyclopropane-1,3′-indolin]-2′-one] | 1.25 | 469.6557 | 370
COc1ccc2c(c1)[C@]1(C[C@H]1c1ccc3c(Nc4cc5c(cc4OC)S(=O)(=O)CC5)n[nH]c3c1)C(=O)N2 [Example 1, 6-methoxy-5-({6-[(1R,2S)-5′-methoxy-2′-oxo-1′,2′-dihydrospiro[cyclopropane-1,3′-indol]-2-yl]-1H-indazol-3-yl}amino)-2,3-dihydro-1H-1-benzothiophene-1,1-dione] | 0.797 | 791.6196 | 242
